Patent publication US20100168090A1, “Active Ingredient Combinations With Insecticidal and Acaricidal Properties” (BAYER CROPSCIENCE AG, priority 2006, published 2010)

Experiments:
Type in all cases: in vivo
[1] = test system: green peach aphid (Myzus persicae); assay: Myzus persicae test (cabbage leaves dipped); details: single active compound; for Kill in % after 1 d: Table A 1
Excerpt: (§1) The expected action for a given combination of two active compounds can be calculated as follows, according to S. R. Colby, Weeds 15 (1967), 20-22:
(§2) If • X is the kill rate, expressed as a percentage of the untreated control, when employing active compound A at an application rate of m g/ha or in a concentration of m ppm, • Y is the kill rate, expressed as a percentage of the untreated control, when employing active compound B at an application rate of n g/ha or in a concentration of n ppm and • E is the kill rate, expressed as a percentage of the untreated control, when employing active compounds A and B at application rates of m and n g/ha or in a concentration of m and n ppm, then
(§3) If the actual kill rate exceeds the calculated value, the kill of the combination is superadditive, i.e. a synergistic effect is present. In this case, the actually observed kill rate must exceed the value calculated using the above formula for the expected kill rate (E).
(§4) Solvent: 7 parts by weight of dimethylformamide Emulsifier: 2 parts by weight of alkylaryl polyglycol ether
(§5) To produce a suitable preparation of active compound, 1 part by weight of active compound is mixed with the stated amounts of solvent and emulsifier, and the concentrate is diluted with emulsifier-containing water to the desired concentration.
Cabbage leaves (Brassica oleracea) which are heavily infested by the green peach aphid (Myzus persicae) are treated by being dipped into the active compound preparation of the desired concentration.
(§6) After the desired period of time, the kill in % is determined. 100% means that all aphids have been killed; 0% means that none of the aphids have been killed. The kill rates determined are entered into Colby's formula.

[2] = test system: larvae of the mustard beetle (Phaedon cochleariae); assay: Phaedon cochleariae larvae test (cabbage leaves dipped); details: single active compound
Excerpt: as §1, §2, §3, §4
To produce a suitable preparation of active compound, 1 part by weight of active compound is mixed with the stated amounts of solvents and emulsifier, and the concentrate is diluted with emulsifier-containing water to the desired concentration.
Cabbage leaves (Brassica oleracea) are treated by being dipped in the active compound preparation of the desired concentration and are populated with larvae of the mustard beetle (Phaedon cochleariae) while the leaves are still moist.
After the desired period of time, the kill in % is determined. 100% means that all beetle larvae have been killed; 0% means that none of the beetle larvae have been killed. The kill rates determined are entered into Colby's formula.

[3] = test system: cotton aphid (Aphis gossypii); assay: Aphis gossypii test (cotton leaves dipped); details: single active compound
Excerpt: as §1, §2, §3, §4, §5
Cotton leaves (Gossypium herbaceum) which are heavily infested by the cotton aphid (Aphis gossypii) are treated by being dipped into the active compound preparation of the desired concentration.
as §6

C/C(=N\C#N)N(C)Cc1ccc(Cl)nc1 [acetamiprid (II-e), acetamiprid]
Kill in % after 6 d ([1]; Table A 3, 0.16 ppm): 10%

CN/C(=N\[N+](=O)[O-])NCc1cnc(Cl)s1 [clothianidin (IIm), clothianidin]
Kill in % after 6 d ([2]; 0.8 ppm): 25%

CO[C@H]1CC[C@]2(CC1)NC(=O)C(c1cc(C)ccc1C)=C2O [compound (I-1)]
Kill in % after 6 d ([2]; 20 ppm): 10% | Kill in % after 6 d ([1]; Table A 2, 0.8 ppm): 5%

COC1CCC2(CC1)NC(=O)C(c1cc(C)ccc1C)=C2O (stereo not shown) [compound (I-1-a)]
Kill in % after 6 d ([2]; 20 ppm): 20% | Kill in % after 6 d ([1]; Table A 2, 0.8 ppm): 0%

CCOC(=O)OC1=C(c2cc(C)ccc2C)C(=O)N[C@]12CC[C@@H](OC)CC2 [compound (I-2)]
Kill in % after 6 d ([2]; 20 ppm): 35% | Kill in % after 1 d ([1]; 4 ppm): 0% | Kill in % after 6 d ([1]; Table A 3, 4 ppm): 80% | Kill in % after 1 d ([3]; 20 ppm): 5%

CCOC(=O)OC1=C(c2cc(C)ccc2C)C(=O)NC12CCC(OC)CC2 (stereo not shown) [compound (I-2-a)]
Kill in % after 6 d ([2]; 20 ppm): 10% | Kill in % after 1 d ([1]; 4 ppm): 0% | Kill in % after 6 d ([1]; Table A 3, 4 ppm): 85% | Kill in % after 1 d ([3]; 20 ppm): 10%

CN/C(=N/CC1CCOC1)N[N+](=O)[O-] (stereo not shown) [dinotefuran (II l), dinotefuran]
Kill in % after 6 d ([1]; Table A 3, 0.16 ppm): 0% | Kill in % after 1 d ([3]; 4 ppm): 30%

O=[N+]([O-])NC1=NCCN1Cc1ccc(Cl)nc1 [imidacloprid (II-a), imidacloprid]
Kill in % after 6 d ([2]; 0.8 ppm): 0% | Kill in % after 1 d ([1]; 0.16 ppm): 15% | Kill in % after 6 d ([1]; Table A 2, 0.032 ppm): 5%

O=[N+]([O-])/N=C1\NCCN1Cc1cnc(Cl)s1 [imidaclothiz (II n), imidaclothiz]
Kill in % after 6 d ([1]; Table A 3, 0.16 ppm): 0%

N#C/N=C1\SCCN1Cc1ccc(Cl)nc1 [thiacloprid (IIk), thiacloprid]
Kill in % after 6 d ([2]; 0.8 ppm): 0%

CN1COCN(Cc2cnc(Cl)s2)/C1=N\[N+](=O)[O-] [thiamethoxam (IIg), thiamethoxam]
Kill in % after 6 d ([2]; 0.8 ppm): 0%
